We go through 7 compounds from PubChem BioAssay (NCI).

Some test systems named below: HS 578T breast; HT29 colon; M14 melanoma; MCF7 breast; MDA-MB-231 breast; RPMI-8226 leukemia; SK-OV-3 ovarian; SN12C renal; SNB-19 CNS; UACC-62 melanoma.
Experiment in all cases: NCI anticancer screen, dose series, 48 h

Where “and” joins values, the source holds several entries; their conditions need not be identical. Equal entries are not always repeated.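 Growth conditions: 96-well plates. Treatment: test compound, 48 hours, 5 concentrations. Analysis: linear interpolation between bracketing concentrations; unreached endpoints set to highest concentration. GI50: concentration for 50% inhibition of growth. TGI denotes the concentration required for complete inhibition of growth.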

Take `Cn1cc(-c2cnc3ccc4ccc(CS(=O)(=O)NCc5ccccn5)cc4c(=O)c3c2)cn1`: the GI50 with HS 578T breast was 14 µM; with HT29 colon it was 15.1 µM; in the experiment on M14 melanoma, 11.9 µM; in the experiment with MCF7 breast, 7.7 µM; with MDA-MB-231 breast it was 19.6 µM; with RPMI-8226 leukemia, 11.6 µM. Further, the GI50 is 26.5 µM in the experiment on SK-OV-3 ovarian, 19 µM in the experiment on SN12C renal, 26.6 µM in the experiment on SNB-19 CNS and 12.5 µM in the experiment with UACC-62 melanoma. The TGI was more than 100 µM in the experiment with HS 578T breast; more than 100 µM in the experiment with HT29 colon; 33.6 µM in the experiment on M14 melanoma; more than 100 µM in the experiment with MCF7 breast; more than 68.4 µM with MDA-MB-231 breast; more than 75.2 µM with RPMI-8226 leukemia. The TGI in the experiment on SK-OV-3 ovarian was more than 100 µM; in the experiment on SN12C renal, more than 93.3 µM; in the experiment on SNB-19 CNS, more than 100 µM; with UACC-62 melanoma it was 39.4 µM.

Take `NC1=NC(c2ccc(Cl)cc2)C2=C(N1)/C(=C/c1ccc(Cl)cc1)CCC2` (centres undefined): the GI50 was 7.97 µM in the experiment with HS 578T breast; 3.14 µM in the experiment on HT29 colon; 2.77 µM in the experiment on M14 melanoma; 3.62 µM with MCF7 breast; more than 29.6 µM in the experiment with MDA-MB-231 breast; 2.36 µM with RPMI-8226 leukemia. For the same compound, the GI50 in the experiment on SK-OV-3 ovarian is 23.5 µM; with SN12C renal, 17.3 µM; in the experiment on SNB-19 CNS, 19.8 µM; with UACC-62 melanoma it was 13.3 µM. In addition, the TGI in the experiment with HS 578T breast was more than 29.9 µM; in the experiment on HT29 colon it was 9.78 µM; with M14 melanoma, 11.6 µM; in the experiment on MCF7 breast it was more than 100 µM; with MDA-MB-231 breast it was more than 56.1 µM; in the experiment with RPMI-8226 leukemia, 6.15 µM. Further, the TGI was more than 100 µM in the experiment with SK-OV-3 ovarian, 50.4 µM in the experiment with SN12C renal, 99.3 µM with SNB-19 CNS and 34.8 µM in the experiment with UACC-62 melanoma.

In the case of `N#CC1=C(N)NC(=O)NC12Nc1ccccc1S2` (centres undefined), the GI50 is 25.5 µM in the experiment with HS 578T breast; 36.7 µM in the experiment with HT29 colon; 19.7 µM in the experiment on M14 melanoma; 24.6 µM with MCF7 breast; 10.4 µM in the experiment with MDA-MB-231 breast; more than 37 µM in the experiment with RPMI-8226 leukemia. Moreover, the GI50 is 30.3 µM in the experiment with SK-OV-3 ovarian, 17.6 µM with SN12C renal, 44.5 µM in the experiment on SNB-19 CNS and 14.7 µM in the experiment on UACC-62 melanoma. For the same compound, the TGI is more than 70.4 µM in the experiment with HS 578T breast; more than 100 µM in the experiment with HT29 colon; 42.5 µM in the experiment with M14 melanoma; more than 73.5 µM with MCF7 breast; 31.2 µM with MDA-MB-231 breast; more than 55.7 µM in the experiment with RPMI-8226 leukemia. Besides, the TGI in the experiment with SK-OV-3 ovarian is more than 70.7 µM; with SN12C renal it was 50.8 µM; in the experiment with SNB-19 CNS it was more than 100 µM; in the experiment with UACC-62 melanoma it was 36.4 µM.

Consider `C#Cc1c(C(N)=O)ncn1C1OC(COP(=O)(OCc2ccc([N+](=O)[O-])o2)N(C)CCCCCl)C(O)C1O` (centres undefined), for which the GI50 was more than 100 µM in the experiment with HS 578T breast; 13.3 µM with HT29 colon; 67.9 µM in the experiment with M14 melanoma; 20.1 µM with MCF7 breast; more than 100 µM with MDA-MB-231 breast; 0.0113 µM in the experiment on RPMI-8226 leukemia. For the same compound, the GI50 was 77 µM in the experiment with SK-OV-3 ovarian, 48.3 µM with SN12C renal, 51.7 µM in the experiment on SNB-19 CNS and more than 100 µM with UACC-62 melanoma. Moreover, the TGI with HS 578T breast, in the experiment on HT29 colon, in the experiment with M14 melanoma, in the experiment on MCF7 breast, in the experiment on MDA-MB-231 breast and in the experiment with RPMI-8226 leukemia was more than 100 µM throughout. In addition, the TGI with SK-OV-3 ovarian, in the experiment with SN12C renal, with SNB-19 CNS and with UACC-62 melanoma was more than 100 µM throughout.

As to `Cc1cc(Nc2ncnc3ccc(NC4=NC(C)(C)CO4)cc23)ccc1Oc1ccn2ncnc2c1`, the GI50 with HS 578T breast is 15.2 µM and > 10 µM; in the experiment with HT29 colon, 14.4 µM and > 10 µM; in the experiment with M14 melanoma, 14.6 µM and > 10 µM; in the experiment on MCF7 breast it was 13.7 µM and > 10 µM; in the experiment on MDA-MB-231 breast it was 14.1 µM and > 10 µM; in the experiment on RPMI-8226 leukemia, 9.87 µM and 6.82 µM. The GI50 in the experiment with SK-OV-3 ovarian was 0.0526 µM; in the experiment with SN12C renal, 11 µM and > 10 µM; in the experiment with SNB-19 CNS, 21.9 µM and > 10 µM; with UACC-62 melanoma, 12.5 µM and > 10 µM. The TGI was 62.4 µM and > 10 µM in the experiment on HS 578T breast; 38.7 µM and > 10 µM with HT29 colon; 33.1 µM and > 10 µM with M14 melanoma; 31.5 µM and > 10 µM in the experiment on MCF7 breast; 44.9 µM and > 10 µM in the experiment with MDA-MB-231 breast; 33.5 µM and > 10 µM with RPMI-8226 leukemia. Also, the TGI with SK-OV-3 ovarian is more than 94.1 µM; in the experiment with SN12C renal it was 65.5 µM and > 10 µM; with SNB-19 CNS it was more than 100 µM; with UACC-62 melanoma it was 30.3 µM and > 10 µM.

As for `COc1ccc(-n2c3c(c4c(CN5CCOCC5)c(O)ccc42)CCc2ccccc2C3=O)cc1`, the GI50 in the experiment on HS 578T breast is more than 100 µM; in the experiment with M14 melanoma it was more than 100 µM; in the experiment with MCF7 breast, more than 100 µM; with MDA-MB-231 breast, 52.1 µM; in the experiment with RPMI-8226 leukemia, 24.4 µM; in the experiment on SK-OV-3 ovarian, more than 100 µM. Moreover, the GI50 was 43.3 µM in the experiment with SN12C renal, more than 100 µM in the experiment on SNB-19 CNS and more than 100 µM in the experiment on UACC-62 melanoma. In addition, the TGI with HS 578T breast was more than 100 µM; in the experiment on HT29 colon, 0.0934 µM; in the experiment with M14 melanoma it was more than 100 µM; with MCF7 breast, more than 100 µM; in the experiment on MDA-MB-231 breast, more than 100 µM; in the experiment with RPMI-8226 leukemia it was more than 100 µM. Further, the TGI with SK-OV-3 ovarian, in the experiment with SN12C renal, with SNB-19 CNS and in the experiment on UACC-62 melanoma was more than 100 µM throughout.

Take `O=C(N/N=C/c1ccc([N+](=O)[O-])cc1)c1ccc2nc(-c3ccc(Cl)cc3)[nH]c2c1`: the GI50 was 3.58 µM in the experiment with HS 578T breast; 3.02 µM in the experiment on HT29 colon; 2.73 µM with M14 melanoma; 0.582 µM in the experiment on MCF7 breast; 3.75 µM in the experiment with MDA-MB-231 breast; 0.461 µM in the experiment with RPMI-8226 leukemia. Further, the GI50 in the experiment with SK-OV-3 ovarian was 11.4 µM; with SN12C renal it was 3.14 µM; in the experiment on SNB-19 CNS it was 7.48 µM; in the experiment on UACC-62 melanoma, 3.51 µM. Also, the TGI in the experiment with HS 578T breast was 24.4 µM; in the experiment on HT29 colon, more than 100 µM; with M14 melanoma, 9.13 µM; with MCF7 breast, 2.85 µM; with MDA-MB-231 breast, 13.9 µM; in the experiment on RPMI-8226 leukemia, 2.41 µM. In addition, the TGI turned out to be 39.6 µM in the experiment with SK-OV-3 ovarian, 18.1 µM in the experiment on SN12C renal, 32.4 µM in the experiment on SNB-19 CNS and 14.9 µM with UACC-62 melanoma.
